Measured values published in PMC6792352, “Limited Chemical Structural Diversity Found to Modulate Thyroid Hormone Receptor in the Tox21 Chemical Library” (Environmental Health Perspectives, 2019).
Structures can show the parent of a compound that is named as a salt.

Assay: in vitro
Details: rat, gh3-tre-luc cells

Compound	CC50 at 24 h (AC50 (uM) modified / 1000) [µM]	also measured
O=[N+]([O-])c1ccc(Oc2ccc(Cl)cc2Cl)cc1 [Nitrofen]		CC50 at 24 h (AC50 (uM) modified / 1000, Tox21_110001=Tox21_202438, viability, 1 nM T3 present, 24 h): > 90 µM
CC(C)NC(=O)c1ccccc1N [2-Amino-N-(1-methylethyl)benzamide]	> 90	
C#C[C@]1(O)C=C[C@H]2[C@@H]3CCC4=CC(=O)CC[C@@H]4[C@H]3CC[C@@]21CC [Gestodene]	> 50	
CC(C(=O)O)c1ccc2c(c1)Cc1cccnc1O2 (stereo not shown) [Pranoprofen]	> 50	
CCC(Cc1c(I)cc(I)c(O)c1I)C(=O)O (stereo not shown) [Iophenoxic acid]	> 50	
Cc1cc(CC(C)CC(C)(C)C)n(O)c(=O)c1 (stereo not shown) [Piroctone olamine]	33	
CCCc1ccccc1 [Propylbenzene]	> 90	
CC(C)[C@@H]1CC[C@@H](C)C[C@H]1O [Menthol]	> 90	
C/C=C(\C)C=O [2-Methyl-2-butenal]	> 90	
CC(=O)Oc1cccc(O)c1 [Resorcinol monoacetate]	> 50	
OC(Cn1cncn1)(c1ccc(F)cc1)c1ccccc1F (stereo not shown) [Flutriafol]	> 90	
CCOC(=O)c1cnc2cc(OCC(C)C)c(OCC(C)C)cc2c1O [Buquinolate]	> 50	
Cc1onc(-c2c(F)cccc2Cl)c1C(=O)N[C@@H]1C(=O)N2[C@@H]1SC(C)(C)[C@@H]2C(=O)O [Floxacillin sodium salt]	> 50	
O=C1NC2NC(=O)NC2N1 (stereo not shown) [Glycoluril]	> 90	
O=C(c1ccccc1)C1CCC1 [Cyclobutyl phenyl ketone]	> 90	
CC[C@H]1OC(=O)[C@H](C)C(=O)[C@H](C)[C@@H](O[C@@H]2O[C@H](C)C[C@H](N(C)C)[C@H]2O)[C@](C)(OC)C[C@@H](C)C(=O)[C@H](C)[C@H]2N(CCCCn3cnc(-c4cccnc4)c3)C(=O)O[C@]12C [Telithromycin]	> 50	
CC(C)(S)C(=O)N[C@@H](CS)C(=O)O [Bucillamine]	> 50	
CCCCCCC[N+](CC)(CC)CCCCc1ccc(Cl)cc1 [Clofilium tosylate]	> 20	
O=S(=O)(Cl)c1ccccc1 [Benzenesulfonyl chloride]	> 90	
COC(=O)CCCCC(=O)O [Methyl hexanedioate]	> 90	
O=C(O)CC(O)C(=O)O (stereo not shown) [Malic acid]	> 90	
CC(C)(C)NCC(O)COc1cccc2c1CCC(=O)N2 (stereo not shown) [Carteolol hydrochloride]	> 20	
CC1CCc2cc(F)cc3c(=O)c(C(=O)O)cn1c23 (stereo not shown) [Flumequine]	> 50	
COC(OC)(C(=O)c1ccccc1)c1ccccc1 [2,2-Dimethoxy-1,2-diphenylethanone]	> 90	

Compound	CC50 at 24 h (AC50 (uM) modified / 1000) [µM]	also measured
COc1ccc(/C=C/C(=O)OCCC(C)C)cc1 [Amiloxate]	> 50	
Cc1c(Cl)c(=O)oc2cc(OP(=O)(OCCCl)OCCCl)ccc12 [Haloxon]		CC50 at 24 h (AC50 (uM) modified / 1000, Tox21_110001=Tox21_111889, viability, 1 nM T3 present, 24 h): > 50 µM
O=c1c2ccccc2c(=O)c2c1cc(Cl)c1[nH]c3c([nH]c12)c(Cl)cc1c(=O)c2ccccc2c(=O)c13 [D&C Blue No. 9]		CC50 at 24 h (AC50 (uM) modified / 1000, Tox21_110001=Tox21_302231, viability, 1 nM T3 present, 24 h): > 90 µM
CCCCc1ccc(C(=O)O)nc1 [Fusaric acid]		CC50 at 24 h (AC50 (uM) modified / 1000, Tox21_110001=Tox21_110149, viability, 1 nM T3 present, 24 h): > 50 µM
CCCCCC(C)N (stereo not shown) [2-Aminoheptane sulfate]	> 50	
O=C(c1ccc(O)cc1)c1ccc(O)cc1 [4,4'-Dihydoxybenzophenone]	> 90	
COc1ccc(O)c(C(C)(C)C)c1 [Butylated hydroxyanisole]	> 90	
C[N+](C)(C)CC(=O)O [Betaine monohydrate]	> 90	
O=NN1CCCC1 [N-Nitrosopyrrolidine]		CC50 at 24 h (AC50 (uM) modified / 1000, Tox21_110001=Tox21_202356, viability, 1 nM T3 present, 24 h): > 100 µM; CC50 at 24 h (AC50 (uM) modified / 1000, Tox21_110001=Tox21_302913, viability, 1 nM T3 present, 24 h): > 90 µM
O=C(Oc1ccccc1C(=O)O)c1ccccc1O [Salsalate]	> 50	
C/C=C/c1ccc(O)c(OC)c1 [Isoeugenol]	> 90	
C/C(=N\C#N)N(C)Cc1ccc(Cl)nc1 [Acetamiprid]	> 90	
CCCCCCCCCCCCCCCBr [1-Bromopentadecane]	> 50	
CCOC(=O)[C@@H](N)CS [Ethyl L-cysteinate hydrochloride]	> 50	
Cc1cc(C)cc(C(=O)OC2C[C@H]3CC[C@@H](C2)N3C)c1 (stereo partly shown)	22.4	
CC1=CC(=O)CC(C)(C)[C@@]1(O)/C=C/C(C)=C\C(=O)O [Abscisic acid]	> 90	
Cc1cccc(N)c1N [2,3-Diaminotoluene]	> 90	
CNC(C)Cc1ccc2c(c1)OCO2 (stereo not shown) [1-(1,3-Benzodioxol-5-yl)-N-methylpropan-2-amine hydrochloride]		CC50 at 24 h (AC50 (uM) modified / 1000, Tox21_110001=Tox21_112889, viability, 1 nM T3 present, 24 h): > 100 µM
Sc1ncccn1 [Pyrimidine-2-thiol]	> 90	
CC(=O)O[C@]1(C(C)=O)CC[C@H]2[C@@H]3CCC4=CC(=O)CC[C@]4(C)[C@@]3(F)[C@@H](O)C[C@@]21C [Flurogestone acetate]	> 50	
CC(=O)OO [Peracetic acid]		CC50 at 24 h (AC50 (uM) modified / 1000, Tox21_110001=Tox21_112402, viability, 1 nM T3 present, 24 h): > 50 µM
CO[C@@H]1[C@H](O)C[C@@H](O[C@@H]2C[C@H](Oc3cc4cc5c(c(O)c4c(O)c3C)C(=O)[C@@H](O[C@H]3C[C@@H](O[C@H]4C[C@@H](O[C@H]6C[C@](C)(O)[C@@H](OC(C)=O)[C@H](C)O6)[C@H](O)[C@@H](C)O4)[C@H](O)[C@@H](C)O3)[C@H]([C@H](OC)C(=O)[C@@H](O)[C@@H](C)O)C5)O[C@H](C)[C@@H]2OC(C)=O)O[C@@H]1C [Chromomycin A3]		CC50 at 24 h (AC50 (uM) modified / 1000, Tox21_110001=Tox21_112065, viability, 1 nM T3 present, 24 h): 0.366 µM
c1ccc2c(c1)[nH]c1ccccc12 [Carbazole]	> 90	
CC(=O)Oc1c(C)cc(OCC(O)CNC(C)C)c(C)c1C (stereo not shown) [Metipranolol]	> 50	

Compound	CC50 at 24 h (AC50 (uM) modified / 1000) [µM]	also measured
C/C(=N\O)c1ccc(OCC(=O)N2CCCCC2)cc1 [Pifoxime]	> 50	
N[C@@H](CSSC[C@H](N)C(=O)O)C(=O)O [L-Cystine]	> 50	
CCSCc1ccccc1OC(=O)NC [Ethiofencarb]		CC50 at 24 h (AC50 (uM) modified / 1000, Tox21_110001=Tox21_301356, viability, 1 nM T3 present, 24 h): > 90 µM
O=C(O)c1ccc(CO)o1 [5-(Hydroxymethyl)-2-furoic acid]	> 90	
C=CCc1cc(OC)c(O)c(C(=O)NCCO)c1 [Alibendol]	> 50	
COc1nc(C)nc(N)n1 [2-Methyl-4-amino-6-methoxy-s-triazine]	> 90	
CC1(C)[C@@H]2CC[C@@]1(C)[C@H](OC(=O)CSC#N)C2 [Thanite]	> 50	
CCC(C)CO (stereo not shown) [2-Methyl-1-butanol]	> 100	
COc1ccc(OC)c(Cl)c1 [2-Chloro-1,4-dimethoxybenzene]	> 90	
COc1cccc(C=O)c1 [3-Methoxybenzaldehyde]		CC50 at 24 h (AC50 (uM) modified / 1000, Tox21_110001=Tox21_302136, viability, 1 nM T3 present, 24 h): > 90 µM
CCCCCCCCC1CCC(=O)O1 (stereo not shown) [gamma-Dodecalactone]	> 90	
NCC(=O)O [Glycine]	> 50	
COc1ccc(C(=O)c2c(C)n(CCN3CCOCC3)c3ccccc23)cc1 [Pravadoline]		CC50 at 24 h (AC50 (uM) modified / 1000, Tox21_110001=Tox21_111785, viability, 1 nM T3 present, 24 h): > 50 µM
CCCCCCC/C=C/C=O [(2E)-2-Decenal]	> 90	
CC(C)Cn1cnc2c1c(=O)n(C)c(=O)n2C [Isbufylline]	> 50	
CCBr [Bromoethane]		CC50 at 24 h (AC50 (uM) modified / 1000, Tox21_110001=Tox21_200355, viability, 1 nM T3 present, 24 h): > 90 µM
CO[C@H]1[C@@H](O)[C@H](N)[C@@H](O[C@H]2O[C@H]([C@H](C)N)CC[C@H]2N)[C@H](O)[C@@H]1N(C)C(=O)CN [Astromicin]	> 50	
Cc1ccc(CO)cc1 [4-Methylbenzyl alcohol]	> 90	
O=C(O)c1ccc(O)cc1 [4-Hydroxybenzoic acid]	> 90	
FC(F)(F)C(Cl)Br (stereo not shown) [Halothane]	> 90	
CCCCNc1ccc(C(=O)OCCN(C)C)cc1 [Tetracaine hydrochloride]	> 20	
CC/C=C\C#N [(2Z)-2-Pentenenitrile]	> 90	
CC(=O)C(Cl)(Cl)Cl [1,1,1-Trichloropropanone]	13.3	
C1=CC2C3C=CC(C3)C2C1 (stereo not shown) [Dicyclopentadiene]	> 90	
